Where two headings read alike, the source gives them in different places.
Assays:
[1] = rat, in vivo, po
Protocol: (§1) The sodium ampicillin and the talampicillin hydrochloride have been administered in aqueous solution; the other talampicillin salts have been administered in aqueous suspension.
(§2) At 0.5, 1,2,4 and 6 hours after the administration the animals were sacrified and their blood was taken from the portal vein.

[2] = white powder
[3] = cited from earlier work
in vivo = settings: rat, po, 100 mg/kg
Protocol: as §1, §2

| SMILES | mcg/ml ampicillin, average ± standard error ([1]; 30 min) [µg/mL] | mcg/ml ampicillin, average ± standard error ([1]; 60 min) [µg/mL] | mcg/ml ampicillin, average ± standard error ([1]; 120 min) [µg/mL] | mcg/ml ampicillin, average ± standard error ([1]; 240 min) [µg/mL] | mcg/ml ampicillin, average ± standard error ([1]; 360 min) [µg/mL] | other results |
| --- | --- | --- | --- | --- | --- | --- |
| CC1(C)S[C@@H]2[C@H](NC(=O)[C@H](N)c3ccccc3)C(=O)N2[C@H]1C(=O)OC1OC(=O)c2ccccc21 (single isomer, unassigned) [talampicillin 2-methoxyphenoxyacetate, 2-methoxyphenoxyacetate of the phthalidyl ester of the 6-[D(-)-α-aminophenylacetamido]penicillanic acid] | 23.4 ± 2.4 | 10.2 ± 0.9 | 3.8 ± 1.1 | 1.7 ± 0.4 | 1.6 ± 1 | SBC [1]: 30; storage [2]: do not show any problem of storage |
| CC1(C)S[C@@H]2[C@H](NC(=O)[C@H](N)c3ccccc3)C(=O)N2[C@H]1C(=O)OC1OC(=O)c2ccccc21 (single isomer, unassigned) [talampicillin, phtahlidyl ester of the 6-[D(-)-α-aminophenylacetamido]penicillanic acid] | – | – | – | – | – | blood levels of the parent ampicillin (in words) ([3]; in vivo, po): very high blood levels of the parent ampicillin; absorption (in words) ([3]; oral route, animals and man): well absorbed when administered by oral route in animals and in man |
| CC1(C)S[C@@H]2[C@H](NC(=O)[C@H](N)c3ccccc3)C(=O)N2[C@H]1C(=O)O [sodium ampicillin, 6-[D(-)-α-aminophenylacetamido]penicillanic acid] | – | – | – | – | – | AUC at 6 h (in vivo): 10700 ng·h/mL; concentration at 0.5 h (in vivo): 6400 ng/mL; concentration at 1 h (in vivo): 4600 ng/mL; concentration at 2 h (in vivo): 1400 ng/mL; concentration at 4 h (in vivo): 800 ng/mL; concentration at 6 h (in vivo): 200 ng/mL |
| CC1(C)S[C@@H]2[C@H](NC(=O)[C@H](N)c3ccccc3)C(=O)N2[C@H]1C(=O)OC1OC(=O)c2ccccc21 (some centres unmarked) [talampicillin napsylate, naphthalene 2-sulphonate of talampicillin] | 14.8 ± 3.4 | 6.1 ± 1.8 | 2.7 ± 0.2 | 1.9 ± 0.6 | 1.1 ± 0.1 | – |

From patent US4293560A, “Talampicillin 2-methoxyphenoxyacetate and pharmaceutical compositions containing it” (priority 1980, dated 1981)
